Data reported in Sander's compilation of Henry's law constants (doi:10.1021/ie980743h).

Assay: Henry solubility constant Hcp at 293 K (mol/(m3 Pa))
Conditions: reference: Dohnal and Hovorka (1999)

Row | Structure (SMILES) | Henry solubility constant Hcp at 293 K
1 | ClCC(Cl)Cl [1,1,2-trichloroethane] | 0.015
2 | CC(Cl)CCl (centres undefined) [1,2-dichloropropane] | 0.0044
3 | CCCCCl [1-chlorobutane] | 0.00067
4 | Clc1ccccc1 [chlorobenzene] | 0.0036
5 | BrCBr [dibromomethane] | 0.014
6 | ClC(Cl)=C(Cl)Cl [tetrachloroethene] | 0.00086

Assay: Henry solubility constant Hcp at 298.15 K (mol/(m3 Pa))
Conditions: reference: Dohnal and Hovorka (1999)

Row | Structure (SMILES) | Henry solubility constant Hcp
7 | Cc1ccccc1C [1,2-dimethylbenzene] | 0.0021
8 | Cc1cccc(C)c1 [1,3-dimethylbenzene] | 0.0015
9 | Cc1ccc(C)cc1 [1,4-dimethylbenzene] | 0.0015
10 | CCC(C)(C)OC [2-methoxy-2-methylbutane] | 0.01
11 | c1ccccc1 [benzene] | 0.0018
12 | CC(C)OC(C)C [diisopropyl ether] | 0.0047
13 | C=Cc1ccccc1 [ethenylbenzene] | 0.0034
14 | Cc1ccccc1 [methylbenzene] | 0.0016
